# According to paper PMC10382584, “Macrocyclization of linear molecules by deep learning to facilitate macrocyclic drug candidates discovery” (Nature Communications, 2023):
# Columns and labels:
# Assay in all cases: biochemical
# Design in all cases: DiscoveRx KINOMEscan competition binding, percent of DMSO control signal at 100 nM
# Conditions in all cases: read-out: Fig. 4a / Percent Control / Compound 1; percent of DMSO control, competition binding
# BMX = BMX (Homo sapiens, UniProt P51813)
# CDK4-cyclinD3 = target: T1, CDK4-cyclinD3 (Homo sapiens, UniProt P11802)
# T1 construct: cyclinD3
# CDKL3 = CDKL3 (Homo sapiens, UniProt Q8IVW4)
# CSF1R-autoinhibited = CSF1R-autoinhibited (Homo sapiens, UniProt P07333)
# CSF1R-autoinhibited, sequence (P07333 whole entry): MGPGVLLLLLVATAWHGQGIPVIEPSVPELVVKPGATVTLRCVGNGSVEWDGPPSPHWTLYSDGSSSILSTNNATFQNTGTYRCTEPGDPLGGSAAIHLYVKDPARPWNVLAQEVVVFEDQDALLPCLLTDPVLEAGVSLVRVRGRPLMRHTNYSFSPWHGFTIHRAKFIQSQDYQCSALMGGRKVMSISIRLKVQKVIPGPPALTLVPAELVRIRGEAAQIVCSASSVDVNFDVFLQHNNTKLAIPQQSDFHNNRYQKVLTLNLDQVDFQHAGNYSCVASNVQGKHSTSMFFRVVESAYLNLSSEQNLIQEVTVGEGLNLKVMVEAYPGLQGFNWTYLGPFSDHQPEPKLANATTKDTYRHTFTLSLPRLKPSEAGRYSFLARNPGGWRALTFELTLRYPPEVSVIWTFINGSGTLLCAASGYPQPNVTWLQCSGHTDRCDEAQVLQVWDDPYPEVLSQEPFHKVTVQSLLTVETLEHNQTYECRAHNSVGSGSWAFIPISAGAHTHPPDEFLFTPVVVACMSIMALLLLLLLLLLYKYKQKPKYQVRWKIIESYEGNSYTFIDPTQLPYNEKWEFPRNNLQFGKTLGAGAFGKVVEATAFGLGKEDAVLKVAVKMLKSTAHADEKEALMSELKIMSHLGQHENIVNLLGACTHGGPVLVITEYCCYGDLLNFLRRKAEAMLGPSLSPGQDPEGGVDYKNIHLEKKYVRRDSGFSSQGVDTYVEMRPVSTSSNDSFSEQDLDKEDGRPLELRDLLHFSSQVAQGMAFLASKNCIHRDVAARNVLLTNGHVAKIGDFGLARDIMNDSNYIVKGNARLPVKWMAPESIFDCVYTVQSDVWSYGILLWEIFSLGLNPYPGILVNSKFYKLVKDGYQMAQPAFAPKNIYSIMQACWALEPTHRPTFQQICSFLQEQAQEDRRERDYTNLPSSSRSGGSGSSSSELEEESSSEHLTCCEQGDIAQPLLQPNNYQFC
# DCAMKL2 = target: T2, DCAMKL2 (Homo sapiens, UniProt Q8N568)
# T2 construct: gene DCLK2
# EPHB1 = EPHB1 (Homo sapiens, UniProt P54762)
# EPHB1, sequence (P54762 whole entry): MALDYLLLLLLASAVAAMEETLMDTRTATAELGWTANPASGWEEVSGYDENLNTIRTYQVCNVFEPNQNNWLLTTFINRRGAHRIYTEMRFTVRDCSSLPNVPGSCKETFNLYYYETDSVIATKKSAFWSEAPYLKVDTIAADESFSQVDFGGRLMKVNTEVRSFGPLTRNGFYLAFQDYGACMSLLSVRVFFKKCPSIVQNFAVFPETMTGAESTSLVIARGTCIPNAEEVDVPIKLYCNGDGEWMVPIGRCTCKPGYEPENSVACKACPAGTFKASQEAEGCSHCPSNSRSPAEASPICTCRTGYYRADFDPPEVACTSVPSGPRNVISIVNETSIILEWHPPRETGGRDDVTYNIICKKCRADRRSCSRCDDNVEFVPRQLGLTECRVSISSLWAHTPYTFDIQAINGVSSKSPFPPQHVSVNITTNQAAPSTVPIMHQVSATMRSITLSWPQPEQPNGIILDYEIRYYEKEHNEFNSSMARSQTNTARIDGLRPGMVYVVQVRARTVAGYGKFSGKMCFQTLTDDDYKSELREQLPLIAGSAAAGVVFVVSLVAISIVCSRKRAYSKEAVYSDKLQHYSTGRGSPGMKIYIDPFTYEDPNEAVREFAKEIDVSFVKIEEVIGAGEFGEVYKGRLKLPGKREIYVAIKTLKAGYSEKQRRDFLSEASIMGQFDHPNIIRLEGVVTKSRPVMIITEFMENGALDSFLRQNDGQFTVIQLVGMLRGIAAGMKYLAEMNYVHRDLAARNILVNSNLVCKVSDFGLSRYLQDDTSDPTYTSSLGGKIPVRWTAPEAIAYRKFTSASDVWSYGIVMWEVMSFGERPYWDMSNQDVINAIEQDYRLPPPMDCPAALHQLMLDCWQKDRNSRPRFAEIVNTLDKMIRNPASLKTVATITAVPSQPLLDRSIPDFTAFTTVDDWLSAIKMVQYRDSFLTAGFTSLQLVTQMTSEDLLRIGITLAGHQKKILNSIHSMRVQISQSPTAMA
# EPHB3 = EPHB3 (Homo sapiens, UniProt P54753)
# HCK = HCK (Homo sapiens, UniProt P08631)
# LZK = target: T3, LZK (Homo sapiens, UniProt O43283)
# T3 construct: gene MAP3K13
# MAST1 = MAST1 (Homo sapiens, UniProt Q9Y2H9)
# MYO3B = MYO3B (Homo sapiens, UniProt Q8WXR4)
# NEK1 = NEK1 (Homo sapiens, UniProt Q96PY6)
# NEK1, sequence (Q96PY6 whole entry): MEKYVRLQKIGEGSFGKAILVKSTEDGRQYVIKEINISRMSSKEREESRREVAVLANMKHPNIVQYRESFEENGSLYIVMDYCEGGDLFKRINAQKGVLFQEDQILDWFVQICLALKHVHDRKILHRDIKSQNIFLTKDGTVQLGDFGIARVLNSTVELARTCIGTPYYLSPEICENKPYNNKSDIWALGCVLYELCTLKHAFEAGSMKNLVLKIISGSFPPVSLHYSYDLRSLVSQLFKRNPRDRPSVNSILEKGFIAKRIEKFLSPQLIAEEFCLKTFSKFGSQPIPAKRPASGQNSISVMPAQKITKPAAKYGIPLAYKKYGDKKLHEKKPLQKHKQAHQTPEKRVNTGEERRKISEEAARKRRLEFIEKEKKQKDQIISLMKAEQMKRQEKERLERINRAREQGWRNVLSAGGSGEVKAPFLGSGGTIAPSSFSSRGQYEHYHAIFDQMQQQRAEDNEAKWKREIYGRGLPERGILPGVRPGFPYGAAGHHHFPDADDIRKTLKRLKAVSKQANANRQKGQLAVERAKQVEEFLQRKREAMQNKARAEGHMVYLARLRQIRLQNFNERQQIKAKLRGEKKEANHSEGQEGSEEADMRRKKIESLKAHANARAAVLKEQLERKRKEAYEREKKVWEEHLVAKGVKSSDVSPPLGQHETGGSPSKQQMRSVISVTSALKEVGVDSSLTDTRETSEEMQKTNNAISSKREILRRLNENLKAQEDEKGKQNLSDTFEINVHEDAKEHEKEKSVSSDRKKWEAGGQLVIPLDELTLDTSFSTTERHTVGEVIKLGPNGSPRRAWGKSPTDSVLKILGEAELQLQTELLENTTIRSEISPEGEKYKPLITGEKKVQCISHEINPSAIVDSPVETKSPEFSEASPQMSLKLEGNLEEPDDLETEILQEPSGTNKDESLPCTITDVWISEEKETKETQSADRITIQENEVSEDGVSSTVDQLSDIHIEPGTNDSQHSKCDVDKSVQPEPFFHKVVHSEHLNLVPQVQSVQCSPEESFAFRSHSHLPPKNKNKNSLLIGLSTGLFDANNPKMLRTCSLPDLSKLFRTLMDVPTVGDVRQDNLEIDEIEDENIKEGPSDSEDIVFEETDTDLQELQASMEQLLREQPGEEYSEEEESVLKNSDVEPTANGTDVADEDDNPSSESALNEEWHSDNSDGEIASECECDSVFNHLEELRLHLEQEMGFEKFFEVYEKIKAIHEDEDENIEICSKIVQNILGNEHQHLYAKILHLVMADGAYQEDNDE
# NEK11 = NEK11 (Homo sapiens, UniProt Q8NG66)
# PIK3CG = PIK3CG (Homo sapiens, UniProt P48736)
# PLK4 = PLK4 (Homo sapiens, UniProt O00444)
# PLK4, sequence (O00444 whole entry): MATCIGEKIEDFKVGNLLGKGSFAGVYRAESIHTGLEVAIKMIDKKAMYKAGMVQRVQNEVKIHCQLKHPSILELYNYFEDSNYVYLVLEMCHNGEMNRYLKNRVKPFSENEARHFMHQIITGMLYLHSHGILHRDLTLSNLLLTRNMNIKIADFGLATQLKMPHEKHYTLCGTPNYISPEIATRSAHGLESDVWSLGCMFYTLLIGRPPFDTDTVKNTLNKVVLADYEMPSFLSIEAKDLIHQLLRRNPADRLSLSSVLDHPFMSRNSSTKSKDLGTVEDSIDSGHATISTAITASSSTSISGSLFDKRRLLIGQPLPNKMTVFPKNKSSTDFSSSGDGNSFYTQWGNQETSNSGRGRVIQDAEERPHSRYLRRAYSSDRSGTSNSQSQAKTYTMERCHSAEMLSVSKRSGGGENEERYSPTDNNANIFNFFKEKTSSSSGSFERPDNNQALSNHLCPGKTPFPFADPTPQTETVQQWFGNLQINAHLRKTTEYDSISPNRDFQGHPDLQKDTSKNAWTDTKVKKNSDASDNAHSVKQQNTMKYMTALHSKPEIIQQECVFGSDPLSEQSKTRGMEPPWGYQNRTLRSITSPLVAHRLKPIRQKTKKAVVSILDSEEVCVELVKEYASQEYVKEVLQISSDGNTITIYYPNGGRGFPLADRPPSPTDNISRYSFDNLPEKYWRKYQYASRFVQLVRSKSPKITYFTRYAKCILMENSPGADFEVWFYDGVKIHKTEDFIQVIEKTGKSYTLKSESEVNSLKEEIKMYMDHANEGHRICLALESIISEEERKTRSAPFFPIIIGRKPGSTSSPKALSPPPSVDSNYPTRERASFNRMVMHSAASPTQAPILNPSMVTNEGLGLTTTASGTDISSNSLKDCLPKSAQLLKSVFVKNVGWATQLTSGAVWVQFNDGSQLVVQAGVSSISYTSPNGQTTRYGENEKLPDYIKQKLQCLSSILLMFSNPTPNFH
# [1] = target: T4, RPS6KA4(Kin.Dom.1-N-terminal) (Homo sapiens, UniProt O75676)
# T4 construct: Kin.Dom.1-N-terminal
# [2] = target: T5, RSK2(Kin.Dom.2-C-terminal) (Homo sapiens, UniProt P51812)
# T5 construct: gene RPS6KA3; Kin.Dom.2-C-terminal
# [3] = target: T6, RSK4(Kin.Dom.2-C-terminal) (Homo sapiens, UniProt Q9UK32)
# T6 construct: gene RPS6KA6; Kin.Dom.2-C-terminal
# SGK3 = SGK3 (Homo sapiens, UniProt Q96BR1)
# SRC = SRC (Homo sapiens, UniProt P12931)
# TIE1 = TIE1 (Homo sapiens, UniProt P35590)
# TNK1 = TNK1 (Homo sapiens, UniProt Q13470)
# TRPM6 = TRPM6 (Homo sapiens, UniProt Q9BX84)
# WEE1 = WEE1 (Homo sapiens, UniProt P30291)
# YES = target: T7, YES (Homo sapiens, UniProt P07947)
# T7 construct: gene YES1
# T7 sequence (P07947 whole entry): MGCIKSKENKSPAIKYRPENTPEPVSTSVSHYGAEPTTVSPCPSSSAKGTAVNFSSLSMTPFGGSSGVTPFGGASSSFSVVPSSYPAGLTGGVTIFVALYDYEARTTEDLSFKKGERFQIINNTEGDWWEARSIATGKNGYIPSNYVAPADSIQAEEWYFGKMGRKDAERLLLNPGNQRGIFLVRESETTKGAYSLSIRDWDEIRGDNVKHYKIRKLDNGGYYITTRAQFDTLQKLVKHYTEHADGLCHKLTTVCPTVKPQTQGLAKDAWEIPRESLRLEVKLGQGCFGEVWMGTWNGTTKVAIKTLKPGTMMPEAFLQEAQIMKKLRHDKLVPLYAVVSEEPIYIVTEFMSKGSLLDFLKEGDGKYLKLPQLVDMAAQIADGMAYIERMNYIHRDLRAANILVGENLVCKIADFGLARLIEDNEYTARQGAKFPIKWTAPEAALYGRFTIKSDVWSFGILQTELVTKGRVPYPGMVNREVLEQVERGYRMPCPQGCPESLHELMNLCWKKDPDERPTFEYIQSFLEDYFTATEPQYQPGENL
# 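Note: KINOMEscan kinase panel binding assay, signal normalized between DMSO as 100% and a positive control compound as 0%.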
compound,measurement,setting,value
Cc1cnc2nc1Nc1cccc(c1)COCc1cc(ccc1OCCN1CCCC1)N2 [Compound 1],remaining binding at 0.1 µM,BMX,93%
same,remaining binding at 0.1 µM,CDK4-cyclinD3,95%
same,remaining binding at 0.1 µM,CDKL3,77%
same,remaining binding at 0.1 µM,CSF1R-autoinhibited,54%
same,remaining binding at 0.1 µM,DCAMKL2,96%
same,remaining binding at 0.1 µM,EPHB1,97%
same,remaining binding at 0.1 µM,EPHB3,100%
same,remaining binding at 0.1 µM,HCK,100%
same,remaining binding at 0.1 µM,LZK,63%
same,remaining binding at 0.1 µM,MAST1,94%
same,remaining binding at 0.1 µM,MYO3B,99%
same,remaining binding at 0.1 µM,NEK1,100%
same,remaining binding at 0.1 µM,NEK11,69%
same,remaining binding at 0.1 µM,PIK3CG,69%
same,remaining binding at 0.1 µM,PLK4,96%
same,remaining binding at 0.1 µM,[1],100%
same,remaining binding at 0.1 µM,[2],87%
same,remaining binding at 0.1 µM,[3],96%
same,remaining binding at 0.1 µM,SGK3,91%
same,remaining binding at 0.1 µM,SRC,75%
same,remaining binding at 0.1 µM,TIE1,94%
same,remaining binding at 0.1 µM,TNK1,38%
same,remaining binding at 0.1 µM,TRPM6,85%
same,remaining binding at 0.1 µM,WEE1,90%
same,remaining binding at 0.1 µM,YES,80%
